*1 amine or outer side, *2 acyl side, *3 side chain or, on linkers, in order; H or OH if unused. Where a SMILES comes first, the peptide text is derived from it. Side-chain parts run from the residue outwards. [ ]: non-standard residue; d: D form. The star is where a group is joined. C18 diacid = O=C(O)CCCCCCCCCCCCCCCCC(=O)*; γGlu = O=C(O)[C@H](CCC(=O)[*:2])N[*:1]; AEEA = NCCOCCOCC(=O)O; Aib = CC(C)(N)C(=O)O
Assays:
Format in all cases: in vivo
[1] = Pharmacokinetic evaluation in mice; details: female, C57Bl/6, mouse, plasma
Protocol: (§1) Compounds were administered in a suitable buffer system, e.g. PBS buffer solution at pH7.4 or DPBS solution at concentrations of 0.05, 0.1, 0.5 or 1 mg/ml depending on dose, species and administration volume.
Female C57Bl/6 mice were dosed 0.25 mg/kg, 0.5 mg/kg or 1 mg/kg intravenously (i.v.) or subcutaneously (s.c.). The mice were sacrificed, and blood samples were collected after 0.08, 0.25, 0.5, 1, 2, 4, 8, 24, 32, and 48 h post i.v. application and 0.25, 0.5, 1, 2, 4, 8, 24, 32, and 48 h post s.c. application, respectively. Plasma samples were analyzed after protein precipitation via liquid chromatography mass spectrometry (LC/MS). PK parameters and half-life were calculated using Phoenix-WinNonlin 8.1 using a non-compartmental model and linear trapezoidal interpolation calculation.
(§2) Pharmacokinetic profiles were determined as described in Methods.

[2] = Pharmacokinetic evaluation in minipigs; details: female, Gottingen, minipig, plasma
[3] = system: C57Bl/6 mice; experiment: Intraperitoneal glucose tolerance test (ipGTT) after s.c. treatment; details: for Incremental blood glucose concentration AUCi / Blood glucose concentration AUC: mean ± SEM; for Incremental blood glucose concentration AUCi: vehicle +4.93 ± 0.324; for Blood glucose concentration AUC: vehicle +22.15 ± 0.662
Protocol: Healthy, normoglycemic male C57Bl/6NCrl mice were ordered in an age of 9-10 weeks with an approximate body weight (BW) of 24-26 g at Charles River Laboratories Deutschland GmbH, 97633 Sulzfeld, Germany. Mice were shipped grouped housed (N=4 per cage), acclimatized for one week and remained grouped housed throughout the entire study. Mice were housed under vivarium conditions that included a 12 h light/dark cycle (light phase 06:00 AM-06:00 PM), mean room temperature of 22±2° C. and a relative mean humidity of 55±10%. All animals had free access to food (Ssniff R/M-H diet) and water prior to study start.
The primary objective of the study was to investigate the compound-induced lowering of the blood glucose excursion and improvement of glucose tolerance in a mouse ipGTT setting and therefore the primary parameters included blood glucose, delta blood glucose (normalized to the time point just prior to the i.p. glucose challenge, t=0 h) and their respective calculated area under curve (AUC) values. The study was performed as an acute, single dosing study with 6 groups and the male animals were randomly divided to groups of 7-8 mice per group. Dose-dependent pharmacodynamic blood glucose lowering efficacy of the GIPR agonist was analyzed with s.c. injections 6 h before the i.p. glucose load in the dose range from 3 up to 100 nmol/kg and compared to the vehicle group as well as the semaglutide positive control at a dose of 10 nmol/kg.
In more detail, mice were fed overnight and on the following morning brought to the lab with food removed but ad libitum access to water. Blood samplings (5 μl) were performed at: −6.5, −0.5, 0, 0.17, 0.5, 1, 1.5, 2 and 3 h before and after the glucose bolus of 1 g glucose per kg BW i.p. given at time point t=0 h. On time point t=0.17 h an additional K-EDTA plasma sample from 60-80 μl blood was taken for plasma insulin analysis. Blood was withdrawn from the tip of the tail. The GIPR agonist and semaglutide were dissolved in 10 mM phosphate buffer pH 7.4 with 2.3% glycerol and 0.01% polysorbat 20 (vehicle) and s.c. treatment was performed −6 h before the glucose load (t=0 h) using an injection volume of 5 ml/kg. The injection solutions were freshly prepared prior to the experiment using sterile filtered vehicle solution.
Blood glucose was determined enzymatically (Gluco-quant® Glucose/HK kit on Roche/Hitachi 912). Plasma insulin was determined using a mouse/rat insulin sandwich immunoassay kit from Meso Scale Discovery.
All data were collected using Microsoft Excel. None of the data were collected online. The results are expressed as means±standard error of the mean (SEM). As primary study parameters, blood glucose, baseline (time point t=0 h) subtracted delta blood glucose and their respective calculated area under curve (AUC) values were determined. The respective AUC data were calculated using the trapezoid rule for the time period t=0 h until t=2 h.
The statistical analysis of the ipGTT blood glucose excursion data response following subcutaneous compound or vehicle treatment was performed on the calculated AUC values of blood glucose raw data as well as the calculated AUC values for baseline subtracted delta blood glucose data. In a first step the Levene's test was used to test for equality of variances between groups. Where Levene's test was significant (p s 0.05), a rank transformation of the calculated AUC data was applied to stabilize the variances before ANOVA analysis was conducted. Where Levene's test was not significant (p>0.05) ANOVA was conducted without prior rank transformation. In a second step a One-way ANOVA analysis for factor treatment followed by Dunnett's multiple comparisons test vs. vehicle group was used to test for statistical differences. Different levels of significance were defined as *=p<0.05, **=p<0.001, ***=p<0.0001. All analyses were performed using SAS (version 9.4) under Linux via the interface software EverSt@t V6.1. […]

[4] = Pharmacokinetic evaluation in monkeys; details: male, cynomolgus monkey, plasma
Protocol: as §1
Male cynomolgus monkeys were dosed 0.1 mg/kg intravenously (i.v.) or subcutaneously (s.c.). Blood samples were collected after 0.083, 0.25, 0.5, 1, 2, 4, 8, 24, 32, 48, and 72 h post i.v. application and 0.5, 1, 2, 4, 8, 24, 48, 72, and 96 h post s.c. application, respectively. Plasma samples were analyzed after protein precipitation via liquid chromatography mass spectrometry (LC/MS). PK parameters and half-life were calculated using Phoenix-WinNonlin 8.1 using a non-compartmental model and linear trapezoidal interpolation calculation.
as §2

[5] = 3 nmol/kg s.c. 6 h before i.p. glucose load
[6] = 10 nmol/kg s.c. 6 h before i.p. glucose load
[7] = 30 nmol/kg s.c. 6 h before i.p. glucose load
[8] = 100 nmol/kg s.c. 6 h before i.p. glucose load

SMILES: CC[C@H](C)[C@H](NC(=O)[C@H](Cc1ccccc1)NC(=O)[C@H](CCC(=O)O)NC(=O)[C@H](CCC(=O)O)NC(=O)[C@H](CCC(N)=O)NC(=O)[C@H](Cc1c[nH]cn1)NC(=O)[C@@H](NC(=O)[C@H](CCCNC(=N)N)NC(=O)[C@H](CC(=O)O)NC(=O)[C@H](CCCCNC(=O)COCCOCCNC(=O)COCCOCCNC(=O)CC[C@H](NC(=O)CCCCCCCCCCCCCCCCC(=O)O)C(=O)O)NC(=O)C(C)(C)NC(=O)[C@@H](NC(=O)[C@H](CO)NC(=O)[C@H](CC(C)C)NC(=O)[C@H](CC(=O)O)NC(=O)[C@H](CO)NC(=O)[C@@H](NC(=O)[C@H](Cc1ccccc1)NC(=O)[C@@H](NC(=O)CNC(=O)[C@H](CCC(=O)O)NC(=O)C(C)(C)NC(=O)[C@@H](N)Cc1ccc(O)cc1)[C@@H](C)O)[C@@H](C)CC)[C@@H](C)CC)[C@@H](C)CC)C(=O)N[C@@H](CCC(=O)O)C(=O)N[C@@H](Cc1c[nH]c2ccccc12)C(=O)N[C@@H](CC(C)C)C(=O)N[C@@H](CC(C)C)C(=O)N[C@@H](C)C(=O)N[C@@H](CCC(N)=O)C(=O)NCC(=O)N1CCC[C@H]1C(=O)N[C@@H](CO)C(=O)N[C@@H](CO)C(=O)NCC(=O)N[C@@H](C)C(=O)N1CCC[C@H]1C(=O)N1CCC[C@H]1C(=O)N1CCC[C@H]1C(=O)N[C@@H](CO)C(N)=O [SEQ ID NO: 9, H2N-Y-Aib-E-G-T-F-I-S-D-I-S-I-Aib-K[{AEEA}2-gGlu-C18OH]-DRIHQEEFIEWILAQGPSSGAPPPS-NH2] (H-Y[Aib]EGTFISDLSI[Aib]K([AEEA-AEEA-γGlu-C18 diacid])DRIHQEEFIEWLLAQGPSSGAPPPS-NH2)
- AUC(0-t) ([1]; iv, 0.25 mg/kg i.v.): 25.7 µg·h/mL
- Cmax ([1]; iv, 0.25 mg/kg i.v.): 3920 ng/mL
- half-life ([1]; iv, 0.25 mg/kg i.v.): 8 h
- clearance ([1]; iv, 0.25 mg/kg i.v., read-out: CI (converted)): 230 mL/day/kg
- AUC(0-t) ([1]; sc, 0.5 mg/kg s.c.): 42.2 µg·h/mL
- Cmax ([1]; sc, 0.5 mg/kg s.c.): 2190 ng/mL
- bioavailability ([1]; sc, 0.5 mg/kg s.c.): 82%
- half-life ([1]; sc, 0.5 mg/kg s.c.): 7.3 h
- AUC(0-t) ([2]; iv, 0.05 mg/kg i.v.): 177 µg·h/mL
- Cmax ([2]; iv, 0.05 mg/kg i.v.): 5530 ng/mL
- half-life ([2]; iv, 0.05 mg/kg i.v.): 75.8 h
- clearance ([2]; iv, 0.05 mg/kg i.v., read-out: CI (converted)): 3.84 mL/day/kg
- AUC(0-t) ([2]; sc, 0.1 mg/kg s.c.): 228 µg·h/mL
- Cmax ([2]; sc, 0.1 mg/kg s.c.): 3080 ng/mL
- bioavailability ([2]; sc, 0.1 mg/kg s.c.): 64%
- Incremental blood glucose concentration AUCi [3, 5]: +3.41 ± 0.520 mmol/L* 0-2 h
- Blood glucose concentration AUC [3, 5]: +21.07 ± 0.544 mmol/L* 0-2 h
- Incremental blood glucose concentration AUCi [3, 6]: +3.33 ± 0.210 mmol/L* 0-2 h
- Blood glucose concentration AUC [3, 6]: +19.28 ± 0.518 mmol/L* 0-2 h
- Incremental blood glucose concentration AUCi [3, 7]: +2.76 ± 0.268 mmol/L* 0-2 h
- Blood glucose concentration AUC [3, 7]: +18.20 ± 0.662 mmol/L* 0-2 h
- Incremental blood glucose concentration AUCi [3, 8]: +1.90 ± 0.158 mmol/L* 0-2 h
- Blood glucose concentration AUC [3, 8]: +14.81 ± 0.533 mmol/L* 0-2 h
- i.p. glucose tolerance compared to the vehicle group ([3]; single s.c. dose 3-100 nmol/kg, ipGTT in C57Bl/6 mice): significant and dose-dependent improvement
- minimal effective dose (improvement of i.p. glucose tolerance) ([3]; single s.c. dose, ipGTT in C57Bl/6 mice): 3 to 10 nmol/kg
- AUC(0-t) ([4]; iv, 0.1 mg/kg i.v.): 149 µg·h/mL
- Cmax ([4]; iv, 0.1 mg/kg i.v.): 6740 ng/mL
- half-life ([4]; iv, 0.1 mg/kg i.v.): 51.4 h
- clearance ([4]; iv, 0.1 mg/kg i.v., read-out: CI (converted)): 10.7 mL/day/kg
- AUC(0-t) ([4]; sc, 0.1 mg/kg s.c.): 122 µg·h/mL
- Cmax ([4]; sc, 0.1 mg/kg s.c.): 1800 ng/mL
- bioavailability ([4]; sc, 0.1 mg/kg s.c.): 83%
- half-life ([4]; sc, 0.1 mg/kg s.c.): 58.4 h

Source: patent US20230103631A1, “PEPTIDES AS SELECTIVE GIP RECEPTOR AGONISTS” (Sanofi, priority 2020, published 2023)
